In patent US20150140015A1, “METHODS AND PHARMACEUTICAL COMPOSITIONS FOR THE TREATMENT OF PANCREATIC CANCER” (INSERM (Institut National de la Sante et de la Recherche …, priority 2013, published 2015):
“Also recorded” adds a separate entry of the source.

Experiments:
[1] = tested on: HPAF-II cells expressing recombinant OX1R; test: Quantification of apoptotic cells by annexin V-PE labeling in recombinant OX1R/HPAF-II cells; type: cell-based, human; conditions: 1 μM orexin-A, 48 hr; recombinant HPAF-II expressing OX1R
Procedure: (§1) FIGS. 5A and B. Effect of orexin-A on apoptosis in OX1R expressing recombinant OX1R/HPAF-II cells. A, Parental HPAF-II and recombinant OX1R/HPAF-II cells were challenged with (black bars) or without (white bars) 1 μM orexin-A for 48 hr in the absence or presence of the SHP-2 protein tyrosine phosphatase inhibitor, NSC-87877 (50 μM). Apoptosis was measured by determination of annexin V-PE binding. Results are expressed as the percentage of apoptotic cells, and are the means±SE of three separate experiments. ***p<0.001; ns, non-significant; B, paraformaldehyde-fixed HPAF-II cells and recombinant OX1R/HPAF-II cells were challenged with or without (Basal) 1 μM orexin-A for 48 hr. Indirect immunostaining of activated caspase-3 in parental HPAF-II cells (left panels) and recombinant OX1R/HPAF-II cells (right panels) in the presence (bottom panels) or tabsence (top panels) of orexin-A is illustrated in B. […]
AsPC-1, SW 1990, HPAF-II and HPAF-II/hOX1R cells (seeded at 5×10^4 cells/well) were grown in 24-well plates for 24 hr under the culture conditions described above. […] Results are expressed as the percentage of apoptotic phycoerythrin-labelled Annexin V (Annexin V-PE) positive cells and are the means of 3 independent analyses.

[2] = tested on: AsPC-1 cells xenografted in nude mice; test: Tumorigenicity assay: AsPC-1 cells xenografted in nude mice; type: in vivo
[3] = tested on: recombinant OX1R/HPAF-II cells; test: Activated caspase-3 immunostaining in recombinant OX1R/HPAF-II cells; type: cell-based, human; conditions: 1 μM orexin-A, 48 hr
Procedure: as §1, with “hr.” for “hr. Indirect immunostaining of activated caspase-3 in parental HPAF-II cells (left panels) and recombinant OX1R/HPAF-II cells (right panels) in the presence (bottom panels) or tabsence (top panels) of orexin-A is illustrated in B.”
After dewaxing, rehydrating tumor paraffin sections, and antigen retrieval by pretreatment with high temperature at pH 9, immunohistochemical procedures were carried out using an automated immunohistochemical stainer according to the manufacturer's guidelines (Bond-Max slide stainer, Menarini, Leica Microsystems). […] OX1R immunostaining was evaluated by two investigators (TV and AC) by calculating a score (0-300) obtained by multiplying the intensity (negative, 0; weak, 1; moderate, 2; and strong, 3) by the percentage of stained cells. The pattern of expression (cytoplasmic, membranous, and nuclear) was also recorded, and a mean score was calculated for each tumor. […]

[4] = tested on: AsPC-1 cells xenografted in nude mice; test: Tumorigenicity assay: AsPC-1 cells xenografted in nude mice; type: in vivo; conditions: for decrease of tumor volume: 30-day treatment; for activated caspase-3 immunostaining in xenografted AsPC-1 tumors: orexin-A 1 μmoles/Kg daily i.p., 30 days
Procedure: FIGS. 6A and B. Effect of daily inoculation of orexin-A on the growth of tumors developed by xenografting human PDCA cells in nude mice. AsPC-1 cells were inoculated in the flank of nude mice at day 0. Mice were injected daily intraperitoneally with 100 μl of orexin-A solutions starting at day 0 (◯) or day 14 (▴) or with 100 μl of PBS ([…]) for controls. A, the daily treatment corresponded to 1 μmoles of orexin-A/Kg. Inset represents the tumor weight measured at the end of the experiment after the mice were sacrificed; B, mice received 0.01, 0.1, 1 or 10 μmoles of orexin-A/kg. After 30 days of treatment, mice were sacrificed and tumor volume and weight were then recorded. The development of tumors was followed by caliper measurement. Data are the means±SE of 6 tumors in each group. *** p<0.01 versus control.
FIG. 7A-F. Indirect immunostaining of activated caspase-3 in xenografted AsPC-1 tumors resected from nude mice. Paraformaldehyde-fixed xenografted AsPC-1 tumors from nude mice treated daily (B, D and F) by intraperitoneal injections with 1 μmoles/Kg orexin-A or not (A, C and E). […] OX1R immunostaining localisation was similar under control and orexin-A treatment conditions.
Control mice received PBS.
After dewaxing, rehydrating tumor paraffin sections, and antigen retrieval by pretreatment with high temperature at pH 9, immunohistochemical procedures were carried out using an automated immunohistochemical stainer according to the manufacturer's guidelines (Bond-Max slide stainer, Menarini, Leica Microsystems). For immunohistochemistry on cell lines, cells in pellets were fixed in formalin, embedded in cell blocks (Shandon Cytoblock; Thermo Scientific; USA) and cut into 3 μm sections. OX1R evaluation was performed in human PDAC, included in TMA, in xenografted tumors and in cell lines (AsPC-1, HPAF-II and HPAF-II/hOX1R). After antigen retrieval, 3 μm cells or tissue sections were incubated for 30 minutes with a polyclonal anti-OX1R antibody (My Bio Source; polyclonal goat; 1/300), rinsed, and then incubated with a biotinylated secondary rabbit anti-goat antibody (Vector BA-500; 1/400). Sections were rinsed and incubated with Streptavidin (TrekAvidin-HRP; Biocare Medical) and DAB ultraview detection kit (Bond Polymer Refine detection; DS9800; Leica Microsystems). Substitution of the primary antibody with PBS was used as a negative control. OX1R immunostaining was evaluated by two investigators (TV and AC) by calculating a score (0-300) obtained by multiplying the intensity (negative, 0; weak, 1; moderate, 2; and strong, 3) by the percentage of stained cells. The pattern of expression (cytoplasmic, membranous, and nuclear) was also recorded, and a mean score was calculated for each tumor. Internal positive controls consisted of normal pancreatic islets while the HEK/hOX1R cell line served as an external positive control. Specificity of the immunostaining was verified by incubation of OX1R antibody with its homologous immunogenic peptide or omission of the primary antibody. Apoptosis determination was performed in tumor cell lines (AsPC-1, HPAF-II and HPAF-II/hOX1R) and resected xenografts, treated or not with orexin-A. Three μm cell sections were immunolabelled for activated caspase-3 after antigen retrieval (ABGENT; cleaved caspase 3; polyclonal rabbit; 1/100) using a detection kit (Bond Polymer Refine detection; DS9800; Leica Microsystems). Substitution of the primary antibody with PBS was used as a negative control. External positive controls consisted of normal lymph nodes. Cleaved caspase-3 immunostaining was determined by calculating the percentage of tumor cells stained in 10 fields of xenografted tumor cells, each field comprising 500 tumor cells.

With “orexin-A: 33 amino acid hypothalamic neuropeptide, OX1R agonist, SEQ ID NO:2; peptide from GL Biochemicals” the “annexin-V positive apoptotic cells” value [1] was 17.8%, the “tumor volume decrease under other injection frequencies” value ([2]; 2 or 3 injections/week (data not shown)) was “same results” and the “reduction of tumor volume versus daily injections” value ([2]; once or twice weekly therapy (data not shown)) was “equivalent or even more effective”. The caspase-3 activation [3] was “strong caspase-3 activation”, the “decrease in tumor volume as compared to untreated mice” value ([4]; 1 μmol/kg daily i.p. beginning the day cells were xenografted) was 48.8% and the “volume of established tumors” value ([4]; 1 μmol/kg daily, started 14 days after cell inoculation) was “rapidly and strongly reduced”. The “weight of tumors, treatment from day 0 versus from day 14” value ([4]; 1 μmol/kg daily, tumors resected after sacrifice) was “No differences”, the “tumoral cell death (Hemalum Eosin Safran staining)” value ([4]; 1 μmoles/Kg orexin-A daily i.p.) was “induced tumoral cell death” and the “decrease of tumor volume” value ([4]; 0.01 moles orexin-A/kg (so in the source)) was 34.4%. The “decrease of tumor volume” value ([4]; 0.1 moles orexin-A/kg (so in the source)) was 30.6%, the “decrease of tumor volume” value ([4]; 1 moles orexin-A/kg (so in the source)) was 46.7% and the “decrease of tumor volume” value ([4]; 10 moles orexin-A/kg (so in the source)) was 52.8%. The “decline of tumor progression” value ([4]; Example 1, Orexin-A injection) was 49%, the “activated caspase-3 immunostaining in xenografted AsPC-1 tumors” value [4] was “intense staining” and the “activated caspase-3 immunostaining in xenografted AsPC-1 tumors” value ([4]; listed as Orexin-A) was “strong immunostaining; also recorded: Induction of apoptosis was observed”.
